Columns and labels:
[1] = system: macrophages; conditions: cited from earlier work
[2] = system: orthotopic HN5 head and neck tumors; conditions: mouse, in vivo
Protocol: Female NOD-SCID mice (6-8 weeks) were purchased from UT Southwestern Medical Center Breeding Core. For orthotopic head and neck tumors, HN5 and FaDu (2×10^6 per mouse) were injected into the submental triangle area. One week after inoculation, animals with tumor size 20-100 mm^3 were used for imaging studies. Orthotopic murine 4T1 breast tumor model was established in BalB/C mice by injection of 4T1 (5×10^5 per mouse) cells into the mammary fat pads. GFP-transfected 73C murine glioblastoma tumor model was established by implanting 73C glioma cells intracranially in the left hemisphere of mice. Gliomas (2-4 mm in diameter) were formed within two weeks in mice.
For FDG experiments, mice were fasted for 12 h prior to PET imaging. Each mouse received 150 μCi of FDG in 150 μL of saline intravenously via tail vein injection. PET/CT images were acquired one hour post-injection for 15 mins. The mice were sedated on the imaging bed under 2% isoflurane for the duration of imaging. Immediately after the CT data acquisition that was performed at 80 kV and 500 μA with a focal spot of 58 μm, 15-min static PET scans were conducted. […] Reconstructed CT and PET images were fused and analyzed using Inveon Research Workplace (IRW) software. […] The target activity was quantitatively calculated as percentage injected dose per gram of tissue (% ID/g).

[3] = system: LPS-induced tissue inflammation; design: species or system C57BL/6 immunocompetent mice; conditions: mouse, in vivo

^18F-fluorodeoxyglucose [FDG]
increase of FDG uptake in macrophages by LPS stimulation [1]: 2.5 fold | contrast over noise ratio (CNR), FDG-PET [2]: 1.7±0.6 | anticipated PET signal in inflamed tissues [3]: strong signals

Reference: US20230416457A1, “DUAL MODALITY UPS […] TUMOR ACIDOSIS IMAGING” (The Board of Regents of The University of Texas System, priority 2018, published 2023)
